Patent publication US20020137767A1, “Methods for treating addictive disorders” (priority 1999, published 2002)
Where “and” joins values, the source holds several entries; their conditions need not be identical. Equal entries are not always repeated.

How the values were obtained:
[1] = tested on: locomotion induced by d-amphetamine sulphate; conditions: male CD rats, cited from earlier work
D1-receptors = conditions: po pretreatment; D2-mediated atypical jerking; male SD rats; cited from earlier work
5-HT2 receptors = conditions: po; male CD rats; cited from earlier work
D1-like receptors = conditions: po; male CD rats; cited from earlier work
D2-like receptors = conditions: po; male CD rats; cited from earlier work
catalepsy = conditions: ip; male CD rats; cited from earlier work
[2] = tested on: stereotypy induced by d-amphetamine sulphate; conditions: ip; d-amphetamine sulphate 10 mg/kg sc; male CD rats; cited from earlier work
[3] = tested on: discriminative stimulus effects of cocaine; assay: Cocaine drug discrimination, pretreatment protocol (Example 2); format: in vivo, rhesus monkeys (Macaca mulatta)
Experimental: During the week, all food was delivered after the experimental session, whereas at weekends, food was delivered between 9 a.m. and noon. Water was freely available at all times.
A computer, located in a separate room, controlled the operant panels and data collection.
Discrimination Training: Discrimination training was conducted 5 days per week during daily sessions composed of multiple cycles. Each cycle consisted of a 15 min time-out period followed by a 5 min response period. During the time-out, all stimulus lights were off, and responding had no scheduled consequences. During the response period, the right and left response keys were transilluminated red or green, and monkeys could earn up to 10 food pellets by responding under a FR 30 schedule of food presentation. For one monkey, the left key was illuminated green and the right key was illuminated red; the colors of the response-keys were reversed for the other three monkeys. The center key was not illuminated at any time and responding on it had no scheduled consequences.
On training days, monkeys were given either saline or 0.40 mg/kg cocaine, i.m., 10 min before the response period. Following the administration of saline, responding on only the green key (the saline-appropriate key) produced food, whereas following administration of 0.40 mg/kg cocaine, only responding on the red key (the drug-appropriate key) produced food. Responses on the inappropriate key reset the FR requirement on the appropriate key. Sessions consisted of 1 to 5 cycles and, if cocaine was administered, this occurred only during the last cycle. Thus, training days consisted of 0 to 5 saline cycles followed by 0 or 1 cocaine cycle.
During each response period, 3 dependent variables were determined:
1) Percent injection-appropriate responding prior to delivery of the first reinforcer.
2) Percent injection-appropriate responding for the entire response period.
Monkeys meeting the following criteria during the training day immediately proceeding the test day and in at least 6 of 7 consecutive training sessions before this, were used for discrimination testing:
1) the percent injection-appropriate responding prior to delivery of the first reinforcer was ≧80% for all cycles;
2) the percent injection-appropriate responding for the entire cycle was ≧90% for all cycles;
3) Response rates during saline training cycles were >0.5 responses per second.
Discrimination Testing: Test sessions were identical to training sessions except that responding on either key produced food, and the test compound was administered using a Pretreatment Protocol. In this protocol, a cumulative dose-effect curve for cocaine (0.013-1.3 mg/kg) was determined either alone or following pretreatment with the test compound, which was administered 20 min before the first dose of cocaine.
Mean data from saline and drug cycles during the training day immediately proceeding the initial test day served as the control data for the subsequent test day.

food-maintained behavior = assay: Food-maintained responding, FR 30, food components (Example 3)
[4] = tested on: cocaine self-administration; assay: Cocaine self-administration, FR 30, drug component (Example 3)
[5] = i.m. 20 min before session, cocaine 0.003 mg/kg/inj, individual monkeys, hydrobromide

What does the source list for `COc1cc2c(cc1O)C(C1(c3ccccc3Cl)CC1)N(C)CC2` (single isomer, unassigned; (+)) [BTS 73 947, (+)-1-[1-(2-chlorophenyl)cyclopropyl]-7-hydroxy-6-methoxy-2-methyl-1,2,3,4-tetrahydroisoquinoline]?
duration of action ([1]; behavioral models): > 6 h; time of peak effect post-dose ([1]; behavioral models): 4 h; ED50 to inhibit locomotion induced by d-amphetamine sulphate ([1]; ip, d-amphetamine sulphate 2.5 mg/kg sc): 0.7 mg/kg; fold greater potency against limbic DA function (locomotion vs stereotypy) ([1]; ratio of stereotypy and locomotion ED50, ip): ~3.5 fold; ED15 (dose induced 15 jerks in the 15 min test period) (D1-receptors): 3.4 mg/kg; protection of 5-HT2 receptors from EEDQ inactivation (5-HT2 receptors): no effect; ED50 for protection of D1-like receptors from EEDQ inactivation (D1-like receptors): 1 mg/kg; protection of D2-like receptors from EEDQ inactivation (D2-like receptors): no effect; ED50 to induce catalepsy (catalepsy): 25.4 mg/kg; ratio of ED50 to induce catalepsy to ED50 to inhibit amphetamine locomotion (catalepsy): 36; ED50 to inhibit stereotypy induced by d-amphetamine sulphate [2]: 2.4 mg/kg

For `Br.COc1cc2c(cc1O)C(C1(c3ccccc3Cl)CC1)N(C)CC2` (single isomer, unassigned; (+)) [test compound, (+)-1-[1-(2-chlorophenyl)cyclopropyl]-7-hydroxy-6-methoxy-2-methyl-1,2,3,4tetrahydroisoquinoline hydrobromide], which “effect on responding (response rate) during first one to three cycles” value ([3]; 0.01 and 0.032 mg/kg, in combination with 0.013 and 0.04 mg/kg cocaine) is on record?
Its value is “eliminated responding”.

And the “fold increase in the cocaine ED50 value” ([3]; pretreatment 0.01 mg/kg, monkey 2)?
The value was 3 fold.

What about the “effect on the cocaine discrimination dose-effect curve” value ([3]; pretreatment 0.01 mg/kg, the other three monkeys (1, 3, 4)) of the same compound?
Its value is “no effect”.

What about the “effect on the cocaine discrimination dose-effect curve” value ([3]; pretreatment 0.032 mg/kg, all four monkeys) of the same compound?
The value was “rightward shifts”.

And the “ED50 for cocaine after pretreatment with test compound 0.01 mg/kg” value ([3]; test compound 0.01 mg/kg 20 min before first cocaine dose, individual monkeys 1-4, hydrobromide)?
The value was 0.24 mg/kg and 0.23 mg/kg and 0.72 mg/kg.

What about the “ED50 for cocaine after pretreatment with test compound 0.032 mg/kg” value ([3]; test compound 0.032 mg/kg 20 min before first cocaine dose, individual monkeys 1-4, hydrobromide) of the same compound?
Its value is 0.72 mg/kg and 0.071 mg/kg.

What about the ED50 (food-maintained behavior; Macaca mulatta, read-out: ED50 for decreasing response rates maintained by food (Food #1, preceded the drug component), i.m. 20 min before session, cocaine 0.003 mg/kg/inj, individual monkeys) of the same compound?
The ED50 was 0.003 mg/kg.

What about the “ED50 for decreasing response rates maintained by food (Food #1, preceded the drug component)” value (food-maintained behavior; [5]) of the same compound?
The value was 0.002 mg/kg.

And the “ED50 for decreasing response rates maintained by food (Food #2, followed the drug component)” value (food-maintained behavior; [5])?
The value was 0.011 mg/kg and 0.006 mg/kg and 0.002 mg/kg.

What about the “effect on food-maintained response rates in the first component of food availability” value (food-maintained behavior; pretreatment 0.01 mg/kg) of the same compound?
Its value is “appreciably decreased”.

What about the “ED50 for decreasing response rates maintained by cocaine (Drug component)” value [4, 5] of the same compound?
The value was 0.002 mg/kg and 0.001 mg/kg and 0.004 mg/kg.

What about the “rightward shift of the peak of the dose-effect function for cocaine self-administration” value ([4]; lower pretreatment dose (0.003 mg/kg), on average) of the same compound?
The value was 3 fold.

What about the “surmountability of treatment effects by increased self-administration of higher unit doses of cocaine” value ([4]; pretreatment 0.003 and 0.01 mg/kg, any monkey) of the same compound?
Its value is “not surmounted”.

Which “substitution for training stimulus (cocaine-appropriate responding)” value ([3]; cocaine alone 0.4 mg/kg (training dose), all monkeys) does the source give for `COC(=O)[C@H]1[C@@H](OC(=O)c2ccccc2)C[C@@H]2CC[C@H]1N2C.Cl` [Cocaine, Cocaine hydrochloride, reference compound] here?
Its value is “Complete substitution”.

And the “effect on response rates” value ([3]; cocaine alone 1.3 mg/kg)?
The value was “decreased response rates”.

And the “ED50 for cocaine (50% cocaine-appropriate responding), Cocaine Alone” value ([3]; cumulative cocaine 0.013-1.3 mg/kg i.m., no pretreatment, individual monkeys 1-4)?
Its value is 0.23 mg/kg.
